Key:
ZRANB3 = ZRANB3 nuclease assay with non-hydrolysable ATP analogues; assay type: biochemical, Human; settings: wild-type ZRANB3, fluorescently labelled DNA substrate, native PAGE (Fig. 3d)
Text: Figure 3 Characterisation of the ZRANB3 HNH active site. (a) Overlay of the T4 endonuclease VII (yellow) and the ZRANB3 HNH (white) structures. […] (b) Overlay of the T4 endonuclease VII (yellow, labels in italics) and the ZRANB3 HNH (white) structures. Mg^2+ ion in T4 endonuclease is shown as a purple sphere. His1021, Asp1020 and His1045 in the HNH structure overlap with the active site residues of T4 endonuclease VII. (c) Nuclease assay with the wild-type and mutant ZRANB3 proteins in the presence and absence of ATP. Reactions were analysed by native poly-acrylamide gel electrophoresis. Indicated are mobilities of the fluorescently labelled DNA substrate and product. (d) Nuclease assay with non-hydrolysable ATP homologues. Shown are controls with the wild-type ZRANB3 and the ATPase dead K65R mutant in the presence of ATP.
Oligonucleotides used in the nuclease assays (5′-[…]-[…]-3′ and Cy3 5′-end-labelled 5′-[…]-[…]-3′) were incubated in 10 mM Tris-HCl pH 7.5, 50 mM NaCl for 3 min at 94 °C, after which the reactions were allowed to gradually cool down.
The nuclease assays with ZRANB3 was performed essentially as described in ref. [9]. Briefly, reaction mixtures containing the indicated nuclease (200 nM) and fluorescently labelled DNA substrate (10 nM) in 10 μl of reaction buffer (50 mM Tris-HCl; 50 mM NaCl; 5 mM MgCl2; 2 mM ATP (Sigma); pH 7.5) were incubated at 30 °C for 60 min. The reactions were stopped by incubation with 0.1% SDS and 4 mg ml^−1 of proteinase K at 30 °C for 45 min. The reactions were then mixed with sucrose (10% final concentration) and resolved in a 10% polyacrylamide gel in 0.5 × TBE buffer (45 mM Tris-borate, 1 mM EDTA; pH 7.5). The fluorescent DNA species were visualized and quantified using Pharos Mx imager and Quantity one software (BioRad).

PCNA = PCNA pull-down with biotinylated PIP box and APIM motif peptides; assay type: binding; settings: biotinylated peptides on streptavidin beads, recombinant PCNA, Western blotting with PCNA antibody (Fig. 4c)
Method: Figure 4 Stimulation of the ZRANB3 nuclease activity by PCNA. (a) Stimulation of FEN1 and ZRANB3 nuclease activities by PCNA. FEN1 or ZRANB3 nucleases were incubated with the DNA substrate and increasing concentrations of PCNA (0.375, 0.75, 1.5 and 3 μM), in the presence (ZRANB3) or absence (FEN1) of ATP. (b) Domain structure of ZRANB3. Conservation of the PIP box and the APIM motif residues among ZRANB3 proteins are shown in the alignments below. Mutated conserved residues in the PIP box and the APIM motif are indicated by arrows. (c) Interactions of the ZRANB3 PIP box and APIM motif with PCNA. Biotinylated PIP box and APIM motif peptides were bound to streptavidin beads and incubated with recombinant PCNA. The interaction was assayed by Western blotting with PCNA antibody. […] (d) Effect of PCNA (0.375, 0.75, 1.5 and 3 μM) on ZRANB3 nuclease activity assayed with the wild-type ZRANB3 and ZRANB3 PCNA binding mutants (ZRANB3-PIP*, ZRANB3-ΔAPIM and ZRANB3-PIP*ΔAPIM). (e) Quantification of nuclease activities in the presence of increasing concentrations of PCNA. […]
Biotinylated PIP-box and APIM-motif peptides were synthesized by Genscript. […] The beads were subsequently washed with the same buffer to remove unbound PCNA, after which they were boiled in the SDS-PAGE loading buffer, and analysed by anti-PCNA Western blotting (ab18197, 1:1,000 dilution).

Compound	ZRANB3 endonuclease activity on substitution of ATP by non-hydrolysable ATP analogue (ZRANB3)	Interaction with PCNA (pull-down) (PCNA)
Nc1ncnc2c1ncn2[C@@H]1O[C@H](COP(=O)(O)OP(=O)(O)CP(=O)(O)O)[C@@H](O)[C@H]1O [AMP-PCP]	complete loss of activity	
Nc1ncnc2c1ncn2[C@@H]1O[C@H](COP(=O)(O)OP(=O)(O)NP(=O)(O)O)[C@@H](O)[C@H]1O [AMP-PNP]	complete loss of activity	
Nc1ncnc2c1ncn2[C@@H]1O[C@H](CO[P@](=O)(O)O[P@](=O)(O)O[P@@](=O)(O)S)[C@@H](O)[C@H]1O [ATPγS]	complete loss of activity	
APIM*: biotinylated ZRANB3 APIM motif peptide with F1075A mutation (pull-down)		abrogated the interaction with PCNA
